From publication PMC8000448, “Inhibitory Effects of Schisandra Lignans on Cytochrome P450s and Uridine 5′-Diphospho-Glucuronosyl Transferases in Human Liver Microsomes” (Pharmaceutics, 2021)
Read-outs that look alike come from different tables or passages of the source.

What was measured:
CYP2C9 [1] = test system: CYP2C9; set-up: method as in PMID 15342469; conditions: cited from earlier work
UGT1A3 = test system: UGT1A3; set-up: method as in PMID 23339253; conditions: cited from earlier work
CYP2C8 = target: T1, CYP2C8 (Homo sapiens, UniProt P10632); test: CYP2C8 inhibition in HLMs (amodiaquine); assay type: in vitro ADME
T1 construct: pooled HLMs (0.25 mg/mL); tissue XenoTech H2630; host or cells: pooled human liver microsomes, mixed gender
T1 sequence (P10632 1-490): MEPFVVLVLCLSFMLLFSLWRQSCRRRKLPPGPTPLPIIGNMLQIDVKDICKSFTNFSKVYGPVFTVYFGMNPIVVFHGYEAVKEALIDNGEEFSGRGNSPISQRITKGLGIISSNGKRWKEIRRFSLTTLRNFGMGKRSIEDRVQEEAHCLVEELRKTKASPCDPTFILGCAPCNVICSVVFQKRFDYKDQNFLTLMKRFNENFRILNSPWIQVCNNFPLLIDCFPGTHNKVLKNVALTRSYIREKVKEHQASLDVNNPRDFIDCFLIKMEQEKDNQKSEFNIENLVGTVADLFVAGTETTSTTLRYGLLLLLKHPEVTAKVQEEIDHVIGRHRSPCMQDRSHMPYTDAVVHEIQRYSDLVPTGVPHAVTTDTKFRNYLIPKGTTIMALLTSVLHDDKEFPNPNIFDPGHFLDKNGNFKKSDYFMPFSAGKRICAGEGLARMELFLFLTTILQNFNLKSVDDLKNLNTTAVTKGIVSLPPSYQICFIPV
Procedure: (§1) Lignans were first dissolved in methanol. […] All microsomal incubations were performed in triplicate.

CYP1A2 = test system: CYP1A2; set-up: method as in PMID 15342469; conditions: cited from earlier work
recombinant CYP3A4 [2] = conditions: recombinant CYP3A4 isoform; read-out: IC50, CYP3A-mediated midazolam 1′-hydroxylation; cited from earlier work
CYP3A [3] = test system: CYP3A; set-up: method as in PMID 15342469; conditions: read-out: IC50, CYP3A-mediated testosterone hydroxylase activity; cited from earlier work
CYP3A4 = conditions: in the presence of the inhibitor; cited from earlier work
six UGT enzymes = test: UGT inhibition in HLMs, summary statements over several isoforms; assay type: in vitro ADME, human; conditions: UGTs other than UGT1A1 and UGT1A3
Procedure: The inhibitory potential of six lignans on six UGT activities was evaluated using the previously developed cocktail method with slight modifications. […] These substrates are known to be selective for each UGT isoforms.

CYP2C19 [4] = test system: CYP2C19; set-up: method as in PMID 15342469; conditions: cited from earlier work
CYP2D6 = test system: CYP2D6; set-up: method as in PMID 15342469; conditions: cited from earlier work
nine P450 enzymes = test: P450 inhibition in HLMs, summary statements over several isoforms; assay type: in vitro ADME, human; conditions: HLMs pre-incubated in the presence of NADPH
Procedure: as §1

[5] = test system: P450s other than CYP1A2, CYP2B6, CYP2C19, CYP2E1 and CYP3A (range over several isoforms); test: as above; assay type: in vitro ADME, human; conditions: human, pooled human liver microsomes, pH 7.4, probe P450 probe substrate cocktails (sets A and B); HLMs; reversible inhibition; P450s other than CYP1A2, CYP2B6, CYP2C19, CYP2E1 and CYP3A
Procedure: as §1

recombinant CYP3A4 [6] = conditions: rCYP3A4, fluorescent substrate; cited from earlier work
CYP2C19 [7] = target: CYP2C19 (Homo sapiens, UniProt P33261); test: in vitro; conditions: microsomes, pH 7.4, IC50 Shift
Procedure: (§2) Lignans were first dissolved in methanol. The final organic solvent concentration in the incubation media was ≤1.0% (v/v). The microsomal incubation was conducted using two cocktail sets containing non-interactive substrates: set A containing phenacetin, bupropion, amodiaquine, diclofenac, S-mephenytoin, and dextromethorphan as substrates for CYP1A2, CYP2B6, CYP2C8, CYP2C9, CYP2C19, and CYP2D6, respectively; and set B containing coumarin and chlorzoxazone as substrates for CYP2A6 and CYP2E1, and midazolam, nifedipine, and testosterone as substrates for CYP3A4 (Table 1). These substrates are known to be selective for each P450 isoforms. Incubation mixtures containing potassium phosphate buffer (0.1 M, pH 7.4), pooled HLMs (0.25 mg/mL), P450 probe substrate cocktails, and lignan (0~50 μM) were pre-incubated at 37 °C (5 min). Following pre-incubation, an NADPH generating system (1.3 mM NADP^+, 3.3 mM G6P, 1 unit/mL G6PDH, and 3.3 mM MgCl2) was added to initiate the reaction, and further incubated for 10 min. The reaction was quenched with 50 μL of cold acetonitrile containing internal standard (IS; 7 nM trimipramine). After centrifugation at 14,000 rpm (5 min at 4 °C), aliquots of supernatants were filtered through a 0.2 μm membrane filter and were measured by liquid chromatography-tandem mass spectrometry (LC-MS/MS). All microsomal incubations were performed in triplicate.

CYP2C9 [8] = target: CYP2C9 (Homo sapiens, UniProt P11712); test: in vitro; conditions: microsomes, pH 7.4, IC50 Shift
Procedure: as §2

CYP3A [9] = conditions: rats; cited from earlier work
CYP3A [10] = test system: CYP3A; set-up: method as in PMID 20448858; conditions: read-out: IC50, CYP3A-mediated midazolam hydroxylation; cited from earlier work
[11] = 30 min pre-incubation with NADPH generating system, read-out: IC50 TDI, CYP2C8
[12] = reversible inhibition, read-out: IC50 RI, CYP2C8

CYP2C19 (Homo sapiens, UniProt P33261), sequence (P33261 whole entry): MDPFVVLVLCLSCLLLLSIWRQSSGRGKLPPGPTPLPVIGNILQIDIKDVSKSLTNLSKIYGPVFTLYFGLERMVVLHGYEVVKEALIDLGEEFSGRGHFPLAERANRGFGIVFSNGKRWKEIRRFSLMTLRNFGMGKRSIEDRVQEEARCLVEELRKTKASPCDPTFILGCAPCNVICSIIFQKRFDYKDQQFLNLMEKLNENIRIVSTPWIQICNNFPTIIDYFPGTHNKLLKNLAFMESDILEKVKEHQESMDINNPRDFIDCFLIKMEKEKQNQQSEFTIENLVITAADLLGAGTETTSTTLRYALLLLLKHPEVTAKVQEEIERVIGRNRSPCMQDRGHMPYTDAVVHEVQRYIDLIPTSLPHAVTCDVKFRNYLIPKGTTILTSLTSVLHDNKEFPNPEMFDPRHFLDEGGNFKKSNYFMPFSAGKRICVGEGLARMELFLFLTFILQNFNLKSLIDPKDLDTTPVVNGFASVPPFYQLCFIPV
CYP2C9 (Homo sapiens, UniProt P11712), sequence (P11712 whole entry): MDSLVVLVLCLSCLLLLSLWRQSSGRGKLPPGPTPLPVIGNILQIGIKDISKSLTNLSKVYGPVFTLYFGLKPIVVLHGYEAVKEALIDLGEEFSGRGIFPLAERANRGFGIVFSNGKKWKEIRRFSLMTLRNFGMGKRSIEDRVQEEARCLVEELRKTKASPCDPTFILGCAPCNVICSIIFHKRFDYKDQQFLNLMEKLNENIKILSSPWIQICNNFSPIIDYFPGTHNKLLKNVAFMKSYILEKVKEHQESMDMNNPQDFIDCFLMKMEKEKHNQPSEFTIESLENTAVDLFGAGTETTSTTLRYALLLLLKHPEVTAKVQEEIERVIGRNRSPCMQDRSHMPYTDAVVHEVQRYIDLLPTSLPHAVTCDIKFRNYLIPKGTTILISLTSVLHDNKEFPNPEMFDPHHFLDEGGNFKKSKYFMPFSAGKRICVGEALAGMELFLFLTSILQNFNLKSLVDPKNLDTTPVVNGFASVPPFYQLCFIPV

Structure (SMILES) | IC50 (CYP2C9 [1]) [µM] | IC50 (UGT1A3) [µM] | IC50 (CYP2C8; [11]) [µM] | IC50 (CYP1A2) [µM] | IC50 (recombinant CYP3A4 [2]) [µM] | IC50 (CYP3A [3]) [µM] | Estimated increase of AUC of drugs predominantly biotransformed by CYP3A4 (CYP3A4) | IC50 (six UGT enzymes) [µM] | IC50 (CYP2C19 [4]) [µM] | IC50 (CYP2D6) [µM] | IC50 (CYP2C8; [12]) [µM] | Inhibitory potential against nine P450s after pre-incubation with NADPH compared to untreated HLMs (nine P450 enzymes) | IC50 at 10 min [5] [µM] | IC50 (recombinant CYP3A4 [6]) [µM] | IC50 shift at 10 min (CYP2C8; human, pooled human liver microsomes, pH 7.4, probe amodiaquine, RI/TDI fold shift) | IC50 shift at 10 min (CYP2C19 [7]) | IC50 shift at 10 min (CYP2C9 [8]) | Oral bioavailability of drugs metabolized by CYP3A, including midazolam (CYP3A [9]) | IC50 (CYP3A [10]) [µM]
COc1cc2c(c(OC)c1OC)-c1c(cc3c(c1OC)OCO3)C[C@H](C)[C@](C)(O)[C@H]2OC(=O)c1ccccc1 [Gomisin C, gomisin C] | > 10 | 12.5 | 5.8 | > 10 | 0.059 | 0.26 to 0.62 | 22–321% | > 50 | > 10 | > 10 |  |  |  |  |  |  |  |  | 
COc1cc2c(c(OC)c1OC)-c1c(cc(OC)c(OC)c1OC)C[C@](C)(O)[C@@H](C)C2 [Schisandrin, schisandrin] |  |  | > 50 |  |  |  |  |  |  |  | 22 | did not increase | 22 to 43 | 32 |  |  |  |  | 
COc1cc2c(c(OC)c1OC)-c1c(cc3c(c1OC)OCO3)C[C@H](C)[C@H](C)C2 [Gomisin N, gomisin N] | > 10 |  | 9.9 | > 10 |  |  |  |  | > 10 | > 10 | 31.7 |  |  |  | 3.2 | > 1.8 | > 1.8 | increase | 5.5
COc1c2c(cc3c1-c1c(cc4c(c1OC)OCO4)C[C@H](C)[C@H](C)C3)OCO2 [Wuweizisu C, wuweizisu C] |  |  | 14.6 |  |  |  |  |  |  |  | 21 |  |  |  |  |  |  |  | 
